Measurements reported in patent US9707267B2, “Beta-turn peptidomimetic cyclic compounds for treating dry eye” (Mimetogen Pharmaceuticals, Inc., priority 2008, dated 2017).

Legend:
[1] = system: Scopolamine Induced Rat Dry Eye Model; test: Scopolamine induced rat dry eye model, corneal staining (Example 5); assay type: in vivo; settings: for Corneal Staining: score 0 to 4, ± SD
Protocol: Dry eye was induced using scopolamine hydrobromide (Sigma-Aldrich, St. Louis, Mo.), which was continuously and systemically delivered to the animals via an osmotic pump (2ML4 Alzet®; CedarLane, Burlington, Ontario) filled with scopolamine and implanted subcutaneously in the mid dorsal area between the scapulae. Scopolamine was delivered for a twenty-eight day period at 12.5 mg/day, which translated to 30.0±1.5 mg/kg via osmotic pump.
Treatments for G2-G6 continued daily for seventeen days (up to an including day twenty-one). Thereafter, treatments were terminated but the study continued for another week. During treatment, each animal was anesthetized in an isoflurane chamber. Once asleep, each animal received a 5 μL topical instillation of test article into the lower conjunctival sac of both eyes using a calibrated micropipette. If a clinical endpoint was also being tested, the test article was topically instilled at the end of the testing.
Immediately following TBUT assessment, the clinical signs of corneal dryness were evaluated by fluorescein staining of the cornea and was tested on day 13 (after 8 daily treatments), day 21 (after 16 daily treatments), and day 28 (after treatment was stopped for 7 days). A drop of a 0.2% sodium fluorescein solution made up in sterile saline was instilled in the upper conjunctival sac of the anaesthetized animal. The cornea was thereafter observed under blue light using a Portable Slit Lamp ophthalmoscope with blue cobalt filter (Reichert Ophthalmic Instruments, Depew, N.Y.) two to three minutes after fluorescein instillation. For each animal, the punctate fluorescein-stained area of the cornea was recorded in a masked fashion. The score of this test was graded from 0 to 4, where 0 is equal to no staining, 1 is less than 25% surface staining, 2 is 25-50% surface staining, 3 is 50-75% surface staining, and 4 is greater than 75% surface staining.

[2] = system: cultured rat conjunctival goblet cells; test: Goblet cell glycoconjugate secretion, ELLA with UEA-1 (Example 2); assay type: cell-based; settings: 2 hours; for Glycoconjugate Secretion, Mean ± sem: mean of rats; for Glycoconjugate Secretion, Mean ± SD: mean of rats/plates
Protocol: The culturing of conjunctival goblet cells from explant cultures was as previously described in Shatos, M. et al., “Isolation, Characterization, and Propagation of Rat Conjunctival Goblet Cells In Vitro,” IOVS 42:1455-1464 (2001), the entire content of which is incorporated herein by reference. The tissue was finely minced and individual pieces were anchored onto scored 6-well cultures dishes in 0.5 mL of complete RPMI-1640 (supplemented with 10% FBS, 2 mM glutamine and 100 μg/mL penicillin-streptomycin) and incubated at 37° C. in a humidified 5% CO2-atmosphere. Explant cultures were refed every 2 days. Within a few days, goblet cells migrated from the pieces and began to proliferate. After approximately one week, the tissue plugs were removed and the goblet cells were allowed to grow to confluence. Cells were passaged once by trypsinization of adherent cells with 0.05% trypsin-0.53 mM EDTA (pH 7.4), and plated in 8-well Laboratory Tek chamber slides (histochemistry) or in 96 well (proliferation), 24 well (secretion), or 6 well (western blots) culture plates with complete RPMI-1640 media.
To measure cell secretion, goblet cells were grown to confluence and then serum depleted for 2 hours prior to stimulation. Cells were incubated with compound D3 at 2, 10, and 50 μM, NGF at 0.1, 1 and 10 nM, and PMA at 0.1, 1, and 10 nM in serum-free RPMI for 2 hours. Goblet cell secretion was measured using an enzyme-linked lectin assay (ELLA). Briefly, an aliquot of the cell culture supernatant was transferred to a 96-well polystyrene microtiter plate in triplicate (Corning Life Sciences #2592, Fisher Scientific, Nepean, Ont). A dilution series of bovine submaxillary mucin (BSM) (Sigma, St. Louis, Mo.) was included on each plate as the standard (standard curve data and data showing that detection of BSM is linear between 0.003 and 0.1 μg not shown). The plates were coated by evaporation at 37° C. overnight. After, the plates were washed three times with wash buffer [PBS containing 0.3% BSA, 0.05% Tween-20] then blocked for nonspecific binding with PBS containing 3% BSA and 0.05% Tween-20 at 37° C. for 1 hour. The wells were rinsed three times in wash buffer, and then incubated in 2 μg/mL biotinylated UEA-1 diluted in wash buffer (Vector Labs, Burlingame, Calif.) at 37° C. for 1 hour. The wells were rinsed three times in wash buffer, and then incubated in 1 μg/mL HRP-conjugated neutravidin diluted in wash buffer (Pierce, Rockford, Ill.) at 37° C. for 1 hour. After the wells were rinsed three times in wash buffer, the color development was performed with TMB (Promega, Madison, Wis.) and stopped with 0.5N Sulfuric acid. The absorbance was read at 450 nm on a Benchmark Plus (Biorad). The goblet cells remaining in the culture wells were either scraped in RIPA buffer [1% TritonX-100, 20 mM Tris-HCl pH 7.5, 150 mM NaCl, 1.5 mM MgCl2, 1% Na deoxycholate, 1 mM EGTA, 1 mM EDTA, 0.1% SDS, 10% glycerol, 1 mM Na vanadate, 10 mM Na fluoride, 10 mM Na pyrophosphate, complete mini EDTA-free protease inhibitors (Roche Applied Science, Indianapolis, Ind.)] or 1M Tris-buffer (pH 7.5), collected and sonicated. The amount of protein in the cell homogenate was analyzed using the Bradford protein assay kit using a dilution series of bovine serum albumin (BSA) as the standard (BioRad, Montreal, PQ). Glycoconjugate secretion was normalized to total protein in the homogenate. Data was then expressed as fold increase above basal. […]

In the case of NCCCC[C@@H]1NC(=O)[C@H](CCC(=O)O)NC(=O)c2cc([N+](=O)[O-])ccc2OCCC(C(=O)NCC(=O)O)NC1=O (stereo partly shown) [Compound D3], the “Corneal Staining” value ([1]; 0.4% topical 1× daily Days 5-21, Day 13) is reported as 2.7 ± 0.4 Score, the “Corneal Staining” value ([1]; 0.4% topical 1× daily Days 5-21, Day 21) is reported as 2.1 ± 0.4 Score and the “Corneal Staining” value ([1]; 0.4% topical 1× daily Days 5-21, Day 28 (7 days after treatment stopped)) is reported as 2.4 ± 0.7 Score. For the same compound, the “changes in corneal staining at Day 28 as compared to Day 13 (in words)” value ([1]; 1% dose vs untreated and saline control groups) was “statistically significantly improved corneal staining”, the “Corneal Staining” value ([1]; 1.0% topical 1× daily Days 5-21, Day 13) was 2.8 ± 0.6 Score and the “Corneal Staining” value ([1]; 1.0% topical 1× daily Days 5-21, Day 21) was 2.3 ± 0.6 Score. The “Corneal Staining” value ([1]; 1.0% topical 1× daily Days 5-21, Day 28 (7 days after treatment stopped)) was 1.3±0.3 Score, the “Corneal Staining” value ([1]; 2.5% topical 1× daily Days 5-21, Day 13) was 2.1 ± 0.7 Score and the “Corneal Staining” value ([1]; 2.5% topical 1× daily Days 5-21, Day 21) was 2.1 ± 1.0 Score. The “Corneal Staining” value ([1]; 2.5% topical 1× daily Days 5-21, Day 28 (7 days after treatment stopped)) was 2.6 ± 0.4 Score, the “Glycoconjugate Secretion” value ([2]; 2 μM, Rat 2) was 1.25 Fold increase above basal and the “Glycoconjugate Secretion” value ([2]; 2 μM, Rat 2 Plate 1) was 2.5 μg glycoconjugate/mg total protein. For the same compound, the “Glycoconjugate Secretion” value ([2]; 2 μM, Rat 3) was 2.14 Fold increase above basal, the “Glycoconjugate Secretion” value ([2]; 2 μM, Rat 3 Plate 1) was 10.5 μg glycoconjugate/mg total protein and the “Glycoconjugate Secretion” value ([2]; 2 μM, Rat 4) was 1.09 Fold increase above basal. The “Glycoconjugate Secretion” value ([2]; 2 μM, Rat 4 Plate 1) was 9.3 μg glycoconjugate/mg total protein, the “Glycoconjugate Secretion, Mean ± sem” value ([2]; 2 μM) was 1.49±0.33 Fold increase above basal and the “Glycoconjugate Secretion, Mean ± SD” value ([2]; 2 μM) was 7.4 ± 4.3 μg glycoconjugate/mg total protein. The “Glycoconjugate Secretion, Mean ± sem” value ([2]; 2 μM, listed as MIM-D3) was 1.49 ± 0.33 Fold increase above basal, the “Glycoconjugate Secretion” value ([2]; 10 μM, Rat 2) was 1.25 Fold increase above basal and the “Glycoconjugate Secretion” value ([2]; 10 μM, Rat 2 Plate 1) was 2.5 μg glycoconjugate/mg total protein. The “Glycoconjugate Secretion” value ([2]; 10 μM, Rat 3) was 1.04 Fold increase above basal, the “Glycoconjugate Secretion” value ([2]; 10 μM, Rat 3 Plate 1) was 5.1 μg glycoconjugate/mg total protein and the “Glycoconjugate Secretion” value ([2]; 10 μM, Rat 4) was 1.35 Fold increase above basal. The “Glycoconjugate Secretion” value ([2]; 10 μM, Rat 4 Plate 1) was 11.6 μg glycoconjugate/mg total protein, the “Glycoconjugate Secretion, Mean ± sem” value ([2]; 10 μM) was 1.21 ± 0.09 Fold increase above basal and the “Glycoconjugate Secretion, Mean ± SD” value ([2]; 10 μM) was 6.4 ± 4.7 μg glycoconjugate/mg total protein. For the same compound, the “Glycoconjugate Secretion” value ([2]; 50 μM, Rat 1) was 1.38 Fold increase above basal, the “Glycoconjugate Secretion” value ([2]; 50 μM, Rat 1 Plate 2) was 5.4 μg glycoconjugate/mg total protein and the “Glycoconjugate Secretion” value ([2]; 50 μM, Rat 2) was 1.65 Fold increase above basal. The “Glycoconjugate Secretion” value ([2]; 50 μM, Rat 2 Plate 1) was 3.3 μg glycoconjugate/mg total protein, the “Glycoconjugate Secretion” value ([2]; 50 μM, Rat 3) was 1.16 Fold increase above basal and the “Glycoconjugate Secretion” value ([2]; 50 μM, Rat 3 Plate 1) was 5.7 μg glycoconjugate/mg total protein. The “Glycoconjugate Secretion” value ([2]; 50 μM, Rat 4) was 1.11 Fold increase above basal, the “Glycoconjugate Secretion” value ([2]; 50 μM, Rat 4 Plate 1) was 9.5 μg glycoconjugate/mg total protein and the “Glycoconjugate Secretion, Mean ± sem” value ([2]; 50 μM) was 1.33 ± 0.12 Fold increase above basal. The “Glycoconjugate Secretion, Mean ± SD” value ([2]; 50 μM) was 6.0 ± 2.6 μg glycoconjugate/mg total protein.
